According to ChEMBL document CHEMBL3352318, “MDN-0104, an antiplasmodial betaine lipid from Heterospora chenopodii” (J Nat Prod, 2014):

System: Plasmodium falciparum
Test: Antiplasmodial activity against Plasmodium falciparum 3D7 late ring stages and early trophozoites forms infected in human erythrocytes assessed as parasite growth inhibition by LDH release assay
Type: functional, organism-based

With CCCCCCCCCCC/C=C(\C)C(=O)C(C)(C)C(=O)OC[C@@H](O)COCC[C@@H](C(=O)[O-])[N+](C)(C)C as the compound, how does the IC50 read?
The IC50 was 7 µM.
